# Patent publication US20260242759A1, “GQ/11 Protein Peptidomimetics” (Vrije Universiteit Brussel, priority 2022, published 2026)
# Positions of bridges follow the written chain, without caps; N, C: chain ends. Non-standard residues stand in square brackets, D forms with d. Residues, ends and D or L forms follow the SMILES beside them. Triazole bridges read from a SMILES are 1,4-linked. Lys(N3) = [N-]=[N+]=NCCCC[C@H](N)C(=O)O; Cha = N[C@@H](CC1CCCCC1)C(=O)O; Pra = C#CC[C@H](N)C(=O)O
# Experiments:
# [1] = molecular target: T1, human ghrelin receptor (GHSR) (Homo sapiens, UniProt Q92847, C146S/C304S); test: Bimane fluorescence assay on purified ghrelin receptor in nanodiscs; format: biochemical; details: bimane labeled GHSR, in presence of JMV1843
# T1 construct: integrin α5 fragment (N); polyhistidine tag (C); made in house; host or cells: E. coli BL21(DE3)
# Source text: Another assay that can be used to analyse conformational changes associated with GPCR activation and/or to identify G protein peptidomimetics that are capable of stabilizing a GPCR in an active conformational state is the bimane fluorescence assay or bimane assay. This assay works through labelling of a cysteine residue in the lower part of the TM6 of a GPCR with a bimane-fluorophore (monobromobimane (MB)). Binding of an agonist to the GPCR causes a conformational change and outward movement of TM6 that places bimane in a more solved-exposed position, which will alter its maximum emission wavelength. In particular, increasing concentrations of agonist result in a concentration-dependent red-shift of the maximum emission wavelength (λmax) of the bimane-fluorophore probe. In the presence of a G protein or an active state stabilizing G protein peptidomimetic λmax may increase further. For example, a bimane labelled ghrelin receptor (such as a cysmin mutant (i.e. mutant with minimal cysteines) of human ghrelin receptor (also referred to herein as growth hormone secretagogue receptor (GHSR) (e.g. the mutant as described in Damian et al. (2021) wherein monobromobimane (MB) fluorescent probe is attached to Cys^255) and ghrelin receptor agonist JMV1843 may be used.
# The bimane fluorescence assays on the ghrelin receptor were performed as described in Damian et al. (2021. Nat. Commun. 12:1-15). Briefly, E. coli bacteria (BL21(DE3)) were transformed with a vector encoding the human ghrelin receptor with an integrin α5 fragment at the N-terminus and a polyhistidine tag at the C-terminus. The receptors were then purified and reconstituted into lipidated nanodiscs. The monobromobimane labeling was performed by incubating the receptors, with a unique reactive cysteine at position 255, during 16 h in the dark at 4° C. and in the presence of 0.1 mM tris(2-carboxyethyl)phosphine (TCEO). The reaction was terminated with 5 mM L-cysteine and unreacted monobromobimane was removed using a Zeba™ Spin desalting column.
# For the fluorescence assay, the labeled receptor was incubated during 2 h at 20° C. (0.2 μM final concentration), in the absence or presence of the full agonist JMV1843 (20 μM) and in the absence or presence of either the peptidomimetics at varying molar ratios or the purified Gαqβ1γ2 heterotrimer, at a 1:5 receptor-to-G protein molar ratio. Afterwards, the fluorescence experiments were performed on a Horiba Fluoromax-4 TCSP spectrofluorimeter. For each scan, the excitation wavelength (λexc) was set at 380 nm and emission was collected between 440 nm and 520 nm.
# The bimane assay is used on GPCRs to detect conformational changes associated with receptor activation. This assay functions through the labelling of a cysteine, which is one of the least frequently occurring amino acids in proteins. Additionally, the majority of the extracellular cysteines form disulfide bonds, which, together with the transmembrane cysteines, are inert to thiol-reactive reagents. Additionally, some of the intracellular cysteines in the C-terminal tail may carry post-translational modifications which reduces the number of reactive cysteines in the receptor (Tian et al. 2017. Chem. Rev. 117:186-245). For GHSR, the remaining reactive cysteine residues C146 (ICL2) and C304 (extracellular end of TM7) were replaced by serines (cysmin mutant, i.e. mutant with minimal cysteines), to allow the monobromobimane (MB) fluorescent probe to be specifically attached to Cys255 in the lower part of TM6 (FIG. 5a) (Damian et al. 2021). In this assay, bimane is chosen because of its small size and sensitivity to the polarity of its environment (Yao et al. 2006. Nat Chem. Biol. 2:417-422). Binding of a ligand to the receptor, causes a conformational change and outward movement of TM6 that places bimane in a more solvent-exposed position, which alters its maximum emission wavelength. […]
# [2] = Solubility in aqueous buffer; details: aqueous buffer for RLA
# HEK293 1C8 cells = test: MTT cytotoxicity assay; format: cell-based, human; details: varying concentrations up to 40 μM, 3 h 45 min
# Protocol: Cells were washed two times with PBS and incubated with 3-(4,5-dimethylthiazol-2-yl)-2,5-diphenyltetrazolium bromide (MTT) during 3 h, at 37° C. Afterwards, cells were washed once with PBS and then incubated for 10 min with DMSO. Plates were analysed with a Tecan Spark 10 M microplate reader.
# An MTT assay was used to assess the cytotoxicity of the non-fluorescent Gq/11 peptidomimetics of Example 5. An MTT assay is a colorimetric test that evaluates the cell metabolic activity and reflects the cell viability.
# T1 sequence (Q92847 whole entry C146S/C304S, the tested form may be a part): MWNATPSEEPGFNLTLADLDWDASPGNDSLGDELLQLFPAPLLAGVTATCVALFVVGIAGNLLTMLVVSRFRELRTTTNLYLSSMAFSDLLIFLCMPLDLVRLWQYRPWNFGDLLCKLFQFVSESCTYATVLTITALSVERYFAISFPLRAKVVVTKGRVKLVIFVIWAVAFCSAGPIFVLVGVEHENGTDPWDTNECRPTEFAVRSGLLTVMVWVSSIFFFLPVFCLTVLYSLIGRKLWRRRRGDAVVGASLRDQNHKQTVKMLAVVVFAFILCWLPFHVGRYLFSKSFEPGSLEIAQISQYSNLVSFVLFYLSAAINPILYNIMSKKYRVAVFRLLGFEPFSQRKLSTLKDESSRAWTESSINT
solubility in aqueous buffer [2],Compound,conformational change in the receptor [1],cytotoxicity / viability (HEK293 1C8 cells)
not soluble,CC[C@H](C)[C@H](NC(=O)[C@H](CC(=O)O)NC(=O)[C@H](CCCCN)NC(=O)[C@H](CS)NC(=O)[C@H](CC(=O)O)NC(=O)[C@H](CC(N)=O)NC(=O)[C@H](Cc1ccccc1)NC(C)=O)C(=O)N[C@H](C(=O)N[C@@H](CC(C)C)C(=O)N[C@@H](CCC(N)=O)C(=O)N[C@@H](CCSC)C(=O)N[C@@H](CC(N)=O)C(=O)N[C@@H](CC(C)C)C(=O)N[C@@H](CCCNC(=N)N)C(=O)N[C@@H](CCC(=O)O)C(=O)N[C@@H](Cc1ccc(O)cc1)C(=O)N[C@@H](CC(N)=O)C(=O)N[C@@H](CC1CCCCC1)C(=O)N[C@H](C(=O)O)C(C)C)[C@@H](C)CC [SBL-GQ-09] (Ac-FNDCKDIILQMNLREYN[Cha]V-OH),not able to induce a conformational change,–
not soluble,Ac-FNDCKDIILQMNLREYNLV-OH [SBL-GQ-07],not able to induce a conformational change,–
–,CC[C@H](C)[C@H](NC(=O)[C@@H]1CCCCn2cc(nn2)C[C@H](NC(=O)[C@H](C)NC(=O)[C@H](Cc2ccccc2)NC(=O)[C@H](CCCNC(=N)N)NC(=O)[C@H](CCCNC(=N)N)NC(=O)[C@H](CCCNC(=N)N)NC(=O)[C@@H](N)CCCNC(=N)N)C(=O)N[C@@H](C(C)C)C(=O)N[C@@H](CCCCN)C(=O)N[C@@H](CC(=O)O)C(=O)N1)C(=O)N[C@@H](CC(C)C)C(=O)N[C@@H](CCC(N)=O)C(=O)N[C@@H](CC(C)C)C(=O)N[C@@H](CC(N)=O)C(=O)N[C@@H](CC(C)C)C(=O)N[C@@H](CCCCN)C(=O)N[C@@H](CCC(=O)O)C(=O)N[C@@H](Cc1ccc(O)cc1)C(=O)N[C@@H](CC(N)=O)C(=O)N[C@@H](CC(C)C)C(=O)N[C@H](C(=O)O)C(C)C [SBL-GQ-14] (H-RRRRFA[Pra]VKD[Lys(N3)]ILQLNLKEYNLV-OH; triazole 7-11),–,only a slight decrease in viability
